Results reported in PubChem BioAssay AID1996.
≈ marks a conversion by molar mass, not a printed value.

Settings: buffer; pH 7.4; 200.0 µM

Point of comparison: Cc1cccc(-c2nc(C#N)c(NCC3CCCO3)o2)c1 (centres undefined), solubility kinetic 2.3 µg/mL (≈ 8.12 µM). Against it:
- N#Cc1c2n(c3c(N)ncnc13)CCCCC2 — 15-fold higher, 33.6 µg/mL (≈ 148 µM)
- Cc1ccc2[nH]c3ccccc3c(=O)c2c1 — 2.5-fold higher, 5.8 µg/mL (≈ 27.7 µM)
- COc1ccc(S(N)(=O)=O)cc1C(=O)OCC1CCCCC1 — 21-fold higher, 48.1 µg/mL (≈ 147 µM)
- CNC(=S)N(CCCO)Cc1cc2cc3c(cc2[nH]c1=O)OCO3 — 3.6-fold higher, 8.2 µg/mL (≈ 23.5 µM)
- C[C@H](NC(=O)c1cccc([N+](=O)[O-])c1)C(=O)OCC(=O)c1ccccc1Br — higher, > 65.3 µg/mL
- CC(=O)n1cc(C=C2C(=O)NC(=O)NC2=O)c2ccccc21 — 12-fold higher, 27.5 µg/mL (≈ 92.5 µM)
- COc1ccc(OC)c(CN2CCCCCC2)c1.O=C(O)C(=O)O — 21-fold higher, 48.2 µg/mL
- COc1ccccc1C1CCN(Cc2c(C)[nH]c3ccccc23)CC1 — higher, > 50.2 µg/mL
- CCn1c(=O)c([N+](=O)[O-])c(NCc2ccco2)c2ccccc21 — 3.8-fold lower, 0.6 µg/mL (≈ 1.92 µM)
- Cc1ccnc(SC2CC(=O)N(c3ccc([N+](=O)[O-])cc3)C2=O)n1 (centres undefined) — higher, > 51.7 µg/mL
- Cc1cc2oc(=O)cc(CN(C)Cc3cccc(F)c3)c2cc1C — 1.9-fold lower, 1.2 µg/mL (≈ 3.69 µM)
- Cc1ccc(F)cc1NC(=O)N1c2ccccc2NC(=O)CC1C (centres undefined) — 19-fold higher, 42.7 µg/mL (≈ 130 µM)
- COc1ccc(-c2ccc(C(=O)O)c(=O)[nH]2)cc1 — higher, > 36.8 µg/mL
- Cc1ccc2nc(C3CCCCC3)[nH]c2c1 — higher, > 32.1 µg/mL
- COC(=O)C1=C(C)N(Cc2ccc(OC)cc2)C(=O)/C1=C\c1ccco1 — 3.3-fold higher, 7.7 µg/mL (≈ 21.8 µM)
- COc1cc(C)ccc1OCCON1C(=O)CCC1=O — higher, > 41.9 µg/mL
- CC1CC(C)CN(c2cc(N(C)CCO)c([N+](=O)[O-])c3nonc23)C1 (centres undefined) — 23-fold higher, 52.1 µg/mL (≈ 149 µM)
- O=C(Nc1cccc(S(=O)(=O)Nc2ccccc2F)c1)c1ccco1 — 4.8-fold higher, 11.1 µg/mL (≈ 30.8 µM)
- COc1ccc(NC(=O)COc2ccccc2)cc1NC(=O)c1ccco1 — 1.9-fold lower, 1.2 µg/mL (≈ 3.28 µM)
- COc1ccc(CNC(=O)c2cncc(Br)c2)cc1 — 20-fold higher, 45.8 µg/mL (≈ 143 µM)
- Cn1cnc2c(cnn2-c2ccccc2)c1=O — higher, > 33.9 µg/mL
- COc1ccc(Cl)cc1NC(=O)c1cc(C)no1 — 2.5-fold higher, 5.7 µg/mL (≈ 21.4 µM)
- Cc1ccc(NC(=O)CN2C(=O)N/C(=C\c3cccnc3)C2=O)cc1 — 2.3-fold higher, 5.2 µg/mL (≈ 15.5 µM)
- COc1ccc(NC(=O)O/N=C/c2ccccc2)cc1 — 2.2-fold higher, 5 µg/mL (≈ 18.5 µM)
- O=[N+]([O-])c1ccc(Sc2cccc3cccnc23)c2cccnc12 — lower, < 0.2 µg/mL
- COc1cccc2sc(/N=C/N(C)C)nc12 — 15-fold higher, 33.6 µg/mL (≈ 143 µM)
- Cc1ccc(OCCNC(=O)c2ccccc2O)cc1 — 2-fold higher, 4.5 µg/mL (≈ 16.6 µM)
- O=C(CSC(=O)c1ccccc1)Nc1ccccc1F — 4.3-fold higher, 9.8 µg/mL (≈ 33.9 µM)
- Cc1ccc2oc(C(=O)N(C)Cc3cnccn3)c(C)c2c1 — higher, > 44.3 µg/mL
- O=S(=O)(Nc1ccc(N2CCCCC2)cc1)c1ccccc1F — 5.2-fold higher, 12 µg/mL (≈ 35.9 µM)
- Cc1ccc(OCCn2c(=O)oc3ccc(C)cc32)cc1 — lower, < 0.6 µg/mL
- N/C(=N\OC(=O)CC1CCCCC1)c1ccc(Cl)cc1 — 2.6-fold lower, 0.9 µg/mL (≈ 3.05 µM)
- Cc1cccc(NC(=O)CCS(=O)(=O)c2ccccc2)n1 — higher, > 45.7 µg/mL
- CCOC(=O)N1CCN(S(=O)(=O)c2ccc3[nH]c(=O)oc3c2)CC1 — 20-fold higher, 45.6 µg/mL (≈ 128 µM)
- CCC(=O)Nc1nc(NCc2ccccc2OC)n(-c2ccccc2)n1 — higher, > 52.7 µg/mL
- Cc1ccc(NC(=O)COc2ccc(N(C)C(=O)C(C)(C)C)cc2)cc1S(=O)(=O)N1CCCCC1 — 2.9-fold higher, 6.7 µg/mL (≈ 13.4 µM)
- O=C(Nc1ccc(F)c(Cl)c1)c1cc(-c2ccco2)on1 — lower, < 0.3 µg/mL
- O=S(=O)(Nc1ccc2ccccc2n1)c1ccccc1Cl — within 1.5-fold, 3.3 µg/mL (≈ 10.4 µM)
- COc1cc([N+](=O)[O-])ccc1NC(=O)COC(=O)c1c[nH]c(=O)[nH]c1=O — higher, > 54.6 µg/mL
- O=C(C(=O)N1CCOCC1)c1cn(Cc2ccccc2)c2ccccc12 — 2.8-fold higher, 6.4 µg/mL (≈ 18.4 µM)
- Cc1cc(C(=O)Nc2ccc(F)cc2C)cs1 — 11-fold higher, 24.4 µg/mL (≈ 97.9 µM)
- COc1ccc(NC(=O)CCSc2nc(C)cs2)cc1 — higher, > 46.3 µg/mL
- O=C(CCc1ccccc1F)N1CCN(c2ccccc2)CC1 — 18-fold higher, 41.6 µg/mL (≈ 133 µM)
- Cc1ccc2c(c1)N(C(C)C(=O)NCc1ccccn1)C(=O)CO2 (centres undefined) — higher, > 48.8 µg/mL
- CCOC(Cn1ccc(=O)[nH]c1=O)OCC — higher, > 34.2 µg/mL
- Cc1ccc(O)c(Nc2nc(-c3ccccc3)nc3ccccc23)c1 — lower, < 0.2 µg/mL
- CCOC(=O)CC1C(=O)NCCN1C(=O)c1cccc(OC)c1 (centres undefined) — 19-fold higher, 44.4 µg/mL (≈ 139 µM)
- COc1ccc(CNC(=O)Cn2cncn2)cc1OC — higher, > 41.4 µg/mL
- O=C1CCCC(=O)N1c1ccc(N2CCOCC2)c([N+](=O)[O-])c1 — higher, > 47.9 µg/mL
- O=C(Cn1ccc([N+](=O)[O-])n1)NCC1CCCO1 (centres undefined) — higher, > 38.1 µg/mL
- O=C1OCC(c2ccc(Cl)s2)=C1c1ccccc1[N+](=O)[O-] — 9.7-fold higher, 22.3 µg/mL (≈ 69.3 µM)
- Fc1ccc2c(c1)C1OCCCC1C(c1ccccc1)N2 (centres undefined) — lower, < 0.6 µg/mL
- COc1ccc(C(=O)Nc2cc(-c3ccc(C)cc3)no2)cc1 — lower, < 0.3 µg/mL
- O=C(Cc1ccc(Cl)cc1)Nc1ccc(Cl)cn1 — within 1.5-fold, 3.1 µg/mL (≈ 11 µM)
- Cc1csc(SCC(=O)Nc2ccc3[nH]c(=O)[nH]c3c2)n1 — higher, > 48.1 µg/mL
- CCOc1ccc(C(=O)NCC(=O)N2CCN(Cc3ccccc3)CC2)cc1 — higher, > 57.2 µg/mL
- C[N+](C)(C)C[C@H](O)CC(=O)O.[Cl-] — higher, > 29.6 µg/mL
- O=C1OCc2ccc(NC(=O)c3c(F)cccc3Cl)cc21 — within 1.5-fold, 2 µg/mL (≈ 6.54 µM)
